Patent US20070093455A1, “10-substituted tetracyclines and methods of use thereof” (priority 2005, published 2007)
Values after ≈ are worked out from the molar mass of the structure shown.

Assays:
S. aureus RN450 = experiment: In vitro MIC assay, S. aureus RN450; format: cell-based; conditions: Staphylococcus aureus, broth microdilution, 35° C., 18-24 hours
S. aureus MRSA5 = experiment: In vitro MIC assay, S. aureus MRSA5; format: cell-based; conditions: Staphylococcus aureus, broth microdilution, 35° C., 18-24 hours
S. aureus RN4250 = experiment: In vitro MIC assay, S. aureus RN4250; format: cell-based; conditions: Staphylococcus aureus, broth microdilution, 35° C., 18-24 hours
S. pneumoniae 157E = experiment: In vitro MIC assay, S. pneumoniae 157E; format: cell-based; conditions: Streptococcus pneumoniae, broth supplemented with lysed horse blood, 35° C., 18-24 hours
[1] = test system: H. influenza (ATCC 49247); experiment: In vitro MIC assay, H. influenza (ATCC 49247); format: cell-based; conditions: read-out: MIC H. influenza (ATCC 49247)
COS-1 or CHO cell = experiment: Mammalian cell cytotoxicity assay (Resazurin; Alamar Blue); format: cell-based; conditions: COS-1 or CHO cells, 24 hour incubation
Experimental: To predict the in vivo risks associated with the compounds of the invention, a soluble, non-toxic redox dye (“Resazurin”; Alamar Blue) was used to assess a compound's effect on cellular metabolism. COS-1 or CHO cell suspensions were prepared, seeded into 96-well black-walled microtiter plates, and incubated overnight at 37° C., in 5% CO2 and approximately 95% humidity. On the next day, serial dilutions of test drug were prepared and transferred to cell plates. Following a 24 hour incubation period, the media/drug was aspirated, and 50 μL of resazurin was added. After a 2 hour incubation, fluorescence measurements were taken (excitation […], emission 590 nm) and toxic effects in treated versus control cells were compared based on the degree of fluorescence in each well.

[2] = test system: Mouse 3T3 fibroblast cells; experiment: Phototoxicity assay (neutral red); format: cell-based; conditions: 3T3 cells; for phototoxicity at 30 μM, incubated in the UV light: UV light 1.6-1.8 mW/cm^2, 30 μM
Experimental: Mouse 3T3 fibroblast cells were harvested and plated at a concentration of 1×10^5 cells/mL. Drug dilutions were made in HBSS and added to the plates. Duplicate plates were then incubated in the dark (for controls), or under UV light (meter reading of 1.6-1.8 mW/cm^2) for 50 minutes. Cells were then washed with HBSS, fresh medium was added, and plates were then incubated overnight. The following day, neutral red was added as an indicator of cell viability and plates were incubated for an additional 3 hours. Cells were then washed with HBSS and a solution of 50% EtOH, 10% glacial acetic acid is added. After a 20 minute incubation period, plates absorbance at 535 nm were read using a Wallac Victor 5 spectrophotometer. The phototoxicity in light-treated and control cultures was then compared.

E. coli (ATCC 25922) = experiment: In vitro MIC assay, E. coli (ATCC 25922); format: cell-based; conditions: Escherichia coli, ATCC25922; broth microdilution, 35° C., 18-24 hours
E. coli MG 1655 DWAK = experiment: In vitro MIC assay, E. coli MG 1655 DWAK; format: cell-based; conditions: Escherichia coli, MG1655DWAK; broth microdilution, 35° C., 18-24 hours
Experimental: The following assay was used to determine the efficacy of tetracycline compounds against common bacteria. Serial dilutions of compounds were prepared in microdilution plates using a Tecan robotic workstation. Mueller Hinton broth cultures of gram negative and gram positive strains were grown or adjusted to match the turbidity of a 0.5 McFarland standard. 1:200 dilutions were made in appropriate broth (cation supplemented Mueller Hinton broth or Haemophilus test medium) to allow a final inoculum of 1×10^5 cfu. Lysed horse blood was used to supplement broth for testing S. pneumoniae. The plates were incubated at 35° C. in ambient air for 18-24 hours, read spectrophotometrically, and checked manually for evidence of bacterial growth. Serial dilutions of compounds were also added to Brucella agar supplemented with laked sheep blood for P. acnes tests. A standard inoculum was transferred to the plate using a stainless steel replicator. After 48 hours of anaerobic incubation at 35° C. plates were examined. The MIC was defined as the lowest concentration of the tetracycline compound that inhibits growth. Table 3 gives the MIC (μg/mL) of selected substituted tetracycline compounds against a variety of gram positive and gram negative bacteria.

P. aeruginosa K1033 = experiment: In vitro MIC assay, P. aeruginosa K1033; format: cell-based; conditions: Pseudomonas aeruginosa, broth microdilution, 35° C., 18-24 hours
E. coli translation = experiment: In vitro translation assay for inhibition of bacterial protein synthesis (E. coli S30 Extract System, luciferase); format: biochemical; conditions: 37° C., 1 hour, luciferase luminescence
Experimental: As a further measure of antibacterial activity, an E. coli S30 Extract System was used to quantitate inhibition of E. coli translation by tetracycline derivatives. This system contained all required components for translation, including a nucleic acid template which, when translated, produces functional luciferase. The reactions were set up with E. coli S30 extract, amino acids, DNA template and selected tetracycline compounds at concentrations of 100, 50, 25, 10, 5, and 1 μg/ml. The reactions were incubated at 37° C. for 1 hour and analyzed by adding the reaction mix to Steady-Glo Luciferase Assay substrate (Promega, Madison Wis.). Luminescence was measured with the Wallac Victor5 plate reader and inhibition is calculated by comparing luciferase activity in experimental reactions versus controls.

B. fragilis (ATCC 25285) = experiment: In vitro MIC assay, B. fragilis (ATCC 25285); format: cell-based; conditions: Bacteroides fragilis, ATCC25285
[3] = test system: B. theraiotaomicron (ATCC 29741); experiment: In vitro MIC assay, B. theraiotaomicron (ATCC 29741); format: cell-based
P. acnes (ATCC 6919) = experiment: In vitro MIC assay, P. acnes (ATCC 6919); format: cell-based; conditions: Cutibacterium acnes, ATCC6919; Brucella agar with laked sheep blood, 48 hours anaerobic, 35° C.
P. acnes (ATCC 11827) = experiment: In vitro MIC assay, P. acnes (ATCC 11827); format: cell-based; conditions: Cutibacterium acnes, ATCC11827; Brucella agar with laked sheep blood, 48 hours anaerobic, 35° C.
P. acnes (PBS 1073) = experiment: In vitro MIC assay, P. acnes (PBS 1073); format: cell-based; conditions: Cutibacterium acnes; Brucella agar with laked sheep blood, 48 hours anaerobic, 35° C.
P. acnes (PBS 1074) = experiment: In vitro MIC assay, P. acnes (PBS 1074); format: cell-based; conditions: Cutibacterium acnes; Brucella agar with laked sheep blood, 48 hours anaerobic, 35° C.
P. acnes (ATCC 1077) = experiment: In vitro MIC assay, P. acnes (ATCC 1077); format: cell-based; conditions: Cutibacterium acnes, ATCC1077; Brucella agar with laked sheep blood, 48 hours anaerobic, 35° C.

Row | Compound | MIC (S. aureus RN450) [µg/mL] | MIC (S. aureus MRSA5) [µg/mL] | MIC (S. aureus RN4250) [µg/mL] | MIC (S. pneumoniae 157E) [µg/mL] | MIC [1] [µg/mL] | cytotoxicity at 75 μg/mL (COS-1 or CHO cell) | phototoxicity at 30 μM, incubated in the UV light [2] | MIC (E. coli (ATCC 25922)) [µg/mL] | MIC (E. coli MG 1655 DWAK) [µg/mL] | MIC (P. aeruginosa K1033) [µg/mL] | IC20 (E. coli translation) [µM] | IC50 (E. coli translation) [µM] | MIC (B. fragilis (ATCC 25285)) [µg/mL] | MIC [3] [µg/mL] | MIC (P. acnes (ATCC 6919)) [µg/mL] | MIC (P. acnes (ATCC 11827)) [µg/mL] | MIC (P. acnes (PBS 1073)) [µg/mL] | MIC (P. acnes (PBS 1074)) [µg/mL] | MIC (P. acnes (ATCC 1077)) [µg/mL] | phototoxicity at 150 μM, incubated in the dark [2]
1 | CN(C)c1cc2c(c3c1CC1CC4[C@H](N(C)C)C(O)=C(C(N)=O)C(=O)[C@@]4(O)C(O)=C1C3=O)OC(=O)N(CC(C)(C)C)C2 (some centres unmarked) [P] | 44 to 64 (≈ 75.5 to 110 µM) | 44 to 64 (≈ 75.5 to 110 µM) | 44 to 64 (≈ 75.5 to 110 µM) | 44 to 64 (≈ 75.5 to 110 µM) | 44 to 64 (≈ 75.5 to 110 µM) | minimal cytotoxicity | minimally phototoxic | – | – | – | – | – | – | – | – | – | – | – | – | –
2 | CN(C)[C@@H]1C(O)=C(C(N)=O)C(=O)[C@@]2(O)C(O)=C3C(=O)c4c(cccc4OS(=O)(=O)C(F)(F)F)CC3CC12 (some centres unmarked) [O] | 22 to 43 (≈ 40.3 to 78.7 µM) | 22 to 43 (≈ 40.3 to 78.7 µM) | 22 to 43 (≈ 40.3 to 78.7 µM) | 44 to 64 (≈ 80.5 to 117 µM) | 44 to 64 (≈ 80.5 to 117 µM) | – | – | 44 to 64 (≈ 80.5 to 117 µM) | 0 to 21 | 0 to 21 | < 100 | < 100 | – | – | – | – | – | – | – | –
3 | CC(=O)c1cccc2c1C(=O)C1=C(O)[C@]3(O)C(=O)C(C(N)=O)=C(O)[C@@H](N(C)C)C3CC1C2 (some centres unmarked) [N] | 22 to 43 (≈ 49.9 to 97.6 µM) | 44 to 64 (≈ 99.9 to 145 µM) | 44 to 64 (≈ 99.9 to 145 µM) | 44 to 64 (≈ 99.9 to 145 µM) | 44 to 64 (≈ 99.9 to 145 µM) | minimal cytotoxicity | – | 44 to 64 (≈ 99.9 to 145 µM) | 0 to 21 | 0 to 21 | < 100 | < 100 | – | – | – | – | – | – | – | –
4 | CC1CCN(Cc2cccc3c2CC2CC4[C@@H](N(C)C)C(O)=C(C(N)=O)C(=O)[C@@]4(O)C(O)=C2C3=O)CC1 (some centres unmarked) [K] | 0 to 21 | 0 to 21 | 0 to 21 | 0 to 21 | 0 to 21 | minimal cytotoxicity | – | 0 to 21 | 0 to 21 | 0 to 21 | – | – | 0 to 8 | 28 to 32 (≈ 54.9 to 62.8 µM) | 0 to 8 | 0 to 8 | 28 to 32 (≈ 54.9 to 62.8 µM) | 28 to 32 (≈ 54.9 to 62.8 µM) | 28 to 32 (≈ 54.9 to 62.8 µM) | –
5 | CN(C)c1cc(C(=O)O)cc2c1CC1CC3[C@@H](N(C)C)C(O)=C(C(N)=O)C(=O)[C@@]3(O)C(O)=C1C2=O (some centres unmarked) [G] | 44 to 64 (≈ 90.6 to 132 µM) | 44 to 64 (≈ 90.6 to 132 µM) | 44 to 64 (≈ 90.6 to 132 µM) | 44 to 64 (≈ 90.6 to 132 µM) | 44 to 64 (≈ 90.6 to 132 µM) | minimal cytotoxicity | minimally phototoxic | 44 to 64 (≈ 90.6 to 132 µM) | 44 to 64 (≈ 90.6 to 132 µM) | 44 to 64 (≈ 90.6 to 132 µM) | < 100 | < 100 | – | – | – | – | – | – | – | not to be appreciably phototoxic
6 | CN(C)c1cccc2c1CC1CC3CC(O)=C(C(N)=O)C(=O)[C@@]3(O)C(O)=C1C2=O (some centres unmarked) [E] | 0 to 21 | 0 to 21 | 0 to 21 | 44 to 64 (≈ 110 to 161 µM) | 22 to 43 (≈ 55.2 to 108 µM) | – | – | 44 to 64 (≈ 110 to 161 µM) | 0 to 21 | 0 to 21 | > 100 | < 100 | – | – | – | – | – | – | – | not to be appreciably phototoxic
